Reference: ChEMBL document CHEMBL3585310, “Synthesis and evaluation of artesunateindoloquinoline hybrids as antimalarial drug candidates” (Medchemcomm, 2014)
pIC50: −log10 of the molar value.

Experiments:
Plasmodium falciparum [1] = experiment: Antiplasmodial activity against chloroquine-sensitive Plasmodium falciparum NF54; type: functional, organism-based
Plasmodium falciparum [2] = experiment: Antiplasmodial activity against chloroquine-resistant Plasmodium falciparum K1; type: functional, organism-based
[3] = Selectivity index, ratio of IC50 for rat L6 cells to IC50 for chloroquine-sensitive Plasmodium falciparum NF54; type: toxicity, cell-based; conditions: L6 cells (cytotoxicity) versus Plasmodium falciparum NF54, read-out: Ratio IC50
Plasmodium falciparum [4] = experiment: Resistance index, ratio of IC50 for chloroquine-resistant Plasmodium falciparum K1 to IC50 chloroquine-sensitive Plasmodium falciparum NF54; type: functional
[5] = Selectivity index, ratio of IC50 for rat L6 cells to IC50 for chloroquine-resistant Plasmodium falciparum K1; type: toxicity, cell-based; conditions: L6 cells (cytotoxicity) versus Plasmodium falciparum K1, read-out: Ratio IC50
Heme = experiment: Binding affinity to heme assessed as inhibition of beta-hematin formation by NP40 detergent based assay
L6 = experiment: Cytotoxicity against rat L6 cells; type: cell-based
Plasmodium berghei [6] = experiment: Antimalarial activity against Plasmodium berghei infected in NMRI mouse at 10 mg/kg, ip for 4 consecutive days by FACS analysis; type: functional
Plasmodium berghei [7] = experiment: Antimalarial activity against Plasmodium berghei infected in NMRI mouse assessed as survival at 10 mg/kg, ip for 4 consecutive days by FACS analysis; type: functional

| SMILES | pIC50 (Plasmodium falciparum [1]) | pIC50 (Plasmodium falciparum [2]) | selectivity ratio [3] | Ratio IC50 (Plasmodium falciparum [4]) | selectivity ratio [5] | pIC50 (Heme) | pIC50 (L6) | Activity (Plasmodium berghei [6]) [%] | MSD (Plasmodium berghei [7]) [days] |
| --- | --- | --- | --- | --- | --- | --- | --- | --- | --- |
| C[C@@H]1CC[C@H]2[C@@H](C)C(=O)O[C@@H]3O[C@@]4(C)CC[C@@H]1[C@]32OO4 [ARTEMISININ] | 8.37 | 8.55 | – | – | – | – | – | – | – |
| C[C@H]1[C@H](OC(=O)CCC(=O)NCC(C)(C)CNc2c3c4ccccc4nc-3n(C)c3ccc(Br)cc23)O[C@@H]2O[C@@]3(C)CC[C@H]4CCC[C@@H]1[C@]42OO3 | 8.49 | 9.02 | 309 | 0.3 | 1040 | 4.54 | 6.00 | – | – |
| NCCCNc1c2ccccc2nc2c1[nH]c1ccccc12 | 7.76 | – | 16 | – | – | 4.77 | 6.56 | – | – |
| C[C@H]1[C@H](OC(=O)CCC(=O)NCCCNc2c3ccccc3nc3c2[nH]c2ccccc23)O[C@@H]2O[C@@]3(C)CC[C@H]4[C@H](C)CC[C@@H]1[C@@]24OO3 | 7.91 | – | 215 | – | – | 4.77 | 5.58 | – | – |
| COC(=O)c1ccc2c(c1)c(NCC(C)(C)CNC(=O)CCC(=O)O[C@@H]1O[C@@H]3O[C@@]4(C)CC[C@H]5CCC[C@@H]([C@H]1C)[C@]53OO4)c1c3ccccc3nc-1n2C | 8.50 | 8.94 | 219 | 0.36 | 604 | 4.59 | 6.16 | – | – |
| C[C@H]1[C@H](OC(=O)CCC(=O)NCCCNc2nc3ccccc3c3[nH]c4ccccc4c23)O[C@@H]2O[C@@]3(C)CC[C@H]4[C@H](C)CC[C@@H]1[C@@]24OO3 | 8.78 | 9.17 | 1320 | 0.4 | 3290 | 4.80 | 5.66 | – | – |
| COC(=O)c1ccc2c(c1)c(NCCCNC(=O)CCC(=O)O[C@@H]1O[C@@H]3O[C@@]4(C)CC[C@H]5CCC[C@@H]([C@H]1C)[C@]53OO4)c1c3ccccc3nc-1n2C | 8.54 | 9.00 | 1290 | 0.35 | 3720 | 4.53 | 5.43 | – | – |
| COC(=O)c1ccc2c(c1)c(NCCCN)c1c3ccccc3nc-1n2C | – | – | – | – | – | 3.98 | – | – | – |
| COC(=O)c1ccc2c(c1)c(NCC(O)CNC(=O)CCC(=O)O[C@@H]1O[C@@H]3O[C@@]4(C)CC[C@H]5CCC[C@@H]([C@H]1C)[C@]53OO4)c1c3ccccc3nc-1n2C (stereo partly drawn) | 8.83 | 9.40 | 826 | 0.27 | 3060 | 4.38 | 5.91 | – | – |
| NCCCNc1nc2ccccc2c2[nH]c3ccccc3c12 | – | – | 45.8 | 6 | 7.6 | 3.20 | – | – | – |
| C[C@H]1[C@H](OC(=O)CCC(=O)NCC(C)(C)CNc2c3c4ccccc4nc-3n(C)c3ccccc23)O[C@@H]2O[C@@]3(C)CC[C@H]4CCC[C@@H]1[C@]42OO3 | 8.94 | 9.03 | 2600 | 0.82 | 3180 | 4.15 | 5.53 | – | – |
| C[C@H]1[C@H](OC(=O)CCC(=O)NCCCNc2c3c4ccccc4nc-3n(C)c3ccccc23)O[C@@H]2O[C@@]3(C)CC[C@H]4CCC[C@@H]1[C@]42OO3 | 9.35 | 9.38 | 3400 | 0.93 | 3640 | 3.65 | 5.82 | 89.6 | 7.7 |
| C[C@H]1[C@H](OC(=O)CCC(=O)NCC(C)(C)CNc2c3c4ccccc4nc-3n(C)c3ccc(Cl)cc23)O[C@@H]2O[C@@]3(C)CC[C@H]4CCC[C@@H]1[C@]42OO3 | 8.82 | 9.39 | 856 | 0.27 | 3130 | 4.42 | 5.89 | – | – |
